The assay addresses T1, PDGF receptor (Rattus norvegicus, UniProt Q05030).
T1 construct: cultured rat mesangial cells which are known to have the PDGF receptor; endogenous in cells; host or cells: primary mesangial cells cultured from glomeruli of Wistar-Kyoto rats (Charles River Japan), more than 5 passages
Nature of the assay: PDGF receptor autophosphorylation inhibition in cultured rat mesangial cells. The format is cell-based. The following applies: PDGF-BB 50 ng/ml. Here is the method:
1. Cultivation of rat mesangial cells
The glomerulus-derived adhesive cells were subcultured several times to obtain mesangial cells. The mesangial cells subcultured more than 5 passages were used for the assay.
2.Evaluation of PDGF receptor autophosphorylation inhibition
The mesangial cells were seeded in 24-well flat-bottom microtiter plates and then cultured in the medium containing 10% FCS for 2 days. When the cells were grown to about 3×10^4 cells per well, the medium was changed to the medium containing 0.5% FCS, the cultivation was continued for another 3 days, and then cell growth was arrested. The culture medium was removed, the adhered cells were washed with 500 μl of the medium, and 250 μl of the medium containing 0.1% bovine serum albumin (hereinafter abbreviated to BSA) was then added. A test drug dissolved in 1.38 μl of dimethyl sulfoxide (hereinafter abbreviated to DMSO) was added to this culture medium, and the admixture was incubated at 37° C. for 1 hour. Recombinant human platelet-derived growth factor BB chain (hereinafter abbreviated to PDGF-BB) was dissolved in the medium containing 0.1% BSA, 25 μl per well of the solution was added at final 50 ng/ml, and the incubation was continued at 37° C. for 10 minutes. […] The cells were allowed to stand at 4° C. for 30 minutes for lysis, and the resulting solution was thoroughly admixed with an equal amount of Tris-buffered physiological saline containing 1% sodium dodecyl sulfate (hereinafter abbreviated to SDS). […] After the electrophoresis, proteins in the gel were electrically transferred to a PVDF filter, which was then subjected to Western blotting using monoclonal antibodies against phosphotyrosine. Bands of PDGF receptor (molecular weight: about 180 Kda) which were autophosphorylated due to the addition of PDGF-BB were quantitated by a densitometer. Autophosphorylation rates for individual wells with drugs were calculated by setting measurements for PDGF receptor autophosphorylation in the wells without drugs in the presence and absence of PDGF-BB as 100% and 0%, respectively.

T1 sequence (Q05030 32-1097): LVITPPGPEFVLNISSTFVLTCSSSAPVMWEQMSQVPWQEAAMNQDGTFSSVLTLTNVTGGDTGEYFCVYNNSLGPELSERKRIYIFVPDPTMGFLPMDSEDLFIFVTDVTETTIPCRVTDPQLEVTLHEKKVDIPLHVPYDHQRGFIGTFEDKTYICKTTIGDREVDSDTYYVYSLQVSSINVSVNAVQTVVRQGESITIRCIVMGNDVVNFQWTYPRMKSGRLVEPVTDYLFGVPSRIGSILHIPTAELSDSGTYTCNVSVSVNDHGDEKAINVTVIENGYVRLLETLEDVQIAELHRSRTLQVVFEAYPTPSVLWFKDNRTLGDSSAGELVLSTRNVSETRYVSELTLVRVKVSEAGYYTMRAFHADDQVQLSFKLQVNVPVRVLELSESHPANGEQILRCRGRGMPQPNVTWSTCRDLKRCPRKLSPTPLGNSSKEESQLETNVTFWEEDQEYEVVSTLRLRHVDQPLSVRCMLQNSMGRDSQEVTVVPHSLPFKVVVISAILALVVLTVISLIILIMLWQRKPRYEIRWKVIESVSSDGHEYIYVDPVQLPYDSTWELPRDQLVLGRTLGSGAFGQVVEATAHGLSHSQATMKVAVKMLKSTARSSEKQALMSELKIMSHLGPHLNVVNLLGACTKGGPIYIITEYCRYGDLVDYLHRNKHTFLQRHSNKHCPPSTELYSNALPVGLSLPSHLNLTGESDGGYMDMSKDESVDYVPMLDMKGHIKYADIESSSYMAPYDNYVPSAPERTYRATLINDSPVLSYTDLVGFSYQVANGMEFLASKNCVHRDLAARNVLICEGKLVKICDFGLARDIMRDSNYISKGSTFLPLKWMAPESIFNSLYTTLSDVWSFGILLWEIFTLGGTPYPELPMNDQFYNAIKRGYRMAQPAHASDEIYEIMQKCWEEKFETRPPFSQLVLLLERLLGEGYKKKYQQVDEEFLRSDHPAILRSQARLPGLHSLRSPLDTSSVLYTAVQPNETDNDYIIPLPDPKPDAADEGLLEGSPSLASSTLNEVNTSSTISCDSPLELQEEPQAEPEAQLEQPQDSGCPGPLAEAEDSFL

In turn, `COc1cccc(Oc2ccnc3cc(OC)c(OC)cc23)c1` [Compound 2, 6,7-Dimethoxy-4-(3-methoxyphenoxy)quinoline] yielded a half-inhibitory concentration (IC50) of 440 nM.
In the case of `COc1cc2nccc(Oc3cccc(C(C)=O)c3)c2cc1OC` [Compound 6] it was 450 nM; in that of `COc1cc2nccc(Oc3ccc4[nH]ccc4c3)c2cc1OC` [Compound 16, 6,7-Dimethoxy-4-(5-indolyloxy)quinoline], 50 nM.
In the case of `COc1cc2nccc(Oc3ccc(C(=O)c4ccc(C(F)(F)F)cc4)cc3)c2cc1OC` [Compound 29, (4-Trifluoromethylphenyl){4-[(6,7-dimethoxy-4-quinolyl)oxy]phenyl}methanone] it was 800 nM; in that of `COc1cc2nccc(Oc3ccc(NC(=O)Nc4ccc([N+](=O)[O-])cc4)cc3)c2cc1OC` [Compound 46, N-{4-[(6,7-Dimethoxy-4-quinolinyl)oxy]phenyl}-N'-(4-nitrophenyl)urea], 21 nM; in that of `CCCCc1ccc(NC(=O)Nc2ccc(Oc3ccnc4cc(OC)c(OC)cc34)cc2)cc1` [Compound 47, N-(4-Butylphenyl)-N'-{4-[(6,7-dimethoxy-4-quinolinyl)oxy]phenyl}urea], 43 nM.
As for `COc1cc2nccc(Oc3ccc(NC(=O)Nc4ccc(C(C)=O)cc4)cc3)c2cc1OC` [Compound 49, N-(4-Acetylphenyl)-N'-{4-[(6,7-dimethoxy-4-quinolinyl)oxy]phenyl}urea], the IC50 worked out at 18 nM.
Take `COc1cc2nccc(Oc3ccc(NC(=O)Nc4ccc(Oc5ccccc5)cc4)cc3)c2cc1OC` [Compound 50, N-{4-[(6,7-Dimethoxy-4-quinolinyl)oxy]phenyl}-N'-(4-phenoxyphenyl)urea]: half-maximal inhibition (IC50) was put at 67 nM. Compared with the last compound, the IC50 is about 3.7-fold higher.
For `COc1cc2nccc(Oc3ccc(NC(=O)Nc4ccc(C(C)C)cc4)cc3)c2cc1OC` [Compound 51, N-(4-Isopropylphenyl)-N'-{4-[(6,7-dimethoxy-4-quinolinyl)oxy]phenyl}urea] the value was 9 nM.
`COc1cc2nccc(Oc3ccc(NC(=O)Nc4cccc(C(F)(F)F)c4)cc3)c2cc1OC` [Compound 53] had an IC50 of 10 nM.
Compound `COc1cc2nccc(Oc3ccc(NC(=O)Nc4ccccc4C(F)(F)F)cc3)c2cc1OC` [Compound 54] gave an IC50 of 3 nM.
In the case of `COc1cc2nccc(Oc3ccc(NC(=O)Nc4cccc(C)c4)cc3)c2cc1OC` [Compound 55, N-{4-[(6,7-Dimethoxy-4-quinolyl)oxy]phenyl}-N'-(3-methylphenyl)urea] it was 3 nM; in that of `COc1cc2nccc(Oc3ccc(NC(=O)C4CCCCC4)cc3)c2cc1OC` [Compound 63, N-{4-[(6,7-Dimethoxy-4-quinolinyl)oxy]phenyl}-cyclohexanecarboxamide], 400 nM; in that of `COc1cc2nccc(Oc3ccc(NC(=O)c4ccc([N+](=O)[O-])cc4)cc3)c2cc1OC` [Compound 66, N-{4-[(6,7-Dimethoxy-4-quinolinyl)oxy]phenyl}-(4-nitrophenyl)carboxamide], 130 nM.
In the case of `COc1cc2nccc(Oc3ccc(NC(=O)c4ccc(N(C)C)cc4)cc3)c2cc1OC` [Compound 67, N-{4-[(6,7-Dimethoxy-4-quinolinyl)oxy]phenyl}-(N,N-dimethylaminophenyl)carboxamide] it was 110 nM; in that of `COc1cc2nccc(Oc3ccc(NC(=O)c4ccc(C(C)=O)cc4)cc3)c2cc1OC` [Compound 68, N-{4-[(6,7-Dimethoxy-4-quinolinyl)oxy]phenyl}-(4-acetylphenyl)carboxamide], 440 nM; in that of `CCCCc1ccc(C(=O)Nc2ccc(Oc3ccnc4cc(OC)c(OC)cc34)cc2)cc1` [Compound 69, N-{4-[(6,7-Dimethoxy-4-quinolinyl)oxy]phenyl}-(4-butylphenyl)carboxamide], 50 nM.
For `CCCCOc1ccc(C(=O)Nc2ccc(Oc3ccnc4cc(OC)c(OC)cc34)cc2)cc1` [Compound 74, N-{4-[(6,7-Dimethoxy-4-quinolinyl)oxy]phenyl}-(4-butoxyphenyl)carboxamide] the value was 340 nM.

These data come from US6143764A, “Quinoline and quinazoline derivatives inhibiting platelet-derived growth factor receptor autophosphorylation and pharmaceutical compositions containing the same” (priority 1995, dated 2000).
